# Results reported in PubChem BioAssay (NCI).
#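 Compound exposure: 48 hours, 5 concentrations, 96-well plates. GI50 is the concentration that inhibits growth by half. TGI denotes the concentration required for complete inhibition of growth.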
# How the values were obtained:
# Assay in all cases: growth of human tumour cells (NCI), 48 h
# [1] = tested on: SNB-19 CNS
# [2] = tested on: HL-60(TB) leukemia
# [3] = tested on: HT29 colon
# [4] = tested on: RXF 393 renal
# [5] = tested on: NCI-H460 lung
# [6] = tested on: MCF7 breast
# [7] = tested on: ACHN renal
# [8] = tested on: HCC-2998 colon
# [9] = tested on: A549 NSCLC
# [10] = tested on: MDA-MB-435
# [11] = tested on: SK-MEL-5 melanoma
# [12] = tested on: UO-31 renal
# [13] = tested on: HS 578T breast
# [14] = tested on: OVCAR-4 ovarian
# [15] = tested on: UACC-62 melanoma
# [16] = tested on: IGROV1 ovarian
# [17] = tested on: SK-MEL-28 melanoma
# [18] = tested on: NCI-H23 lung
# [19] = tested on: MDA-MB-231 breast
# [20] = tested on: K-562 leukemia
# [21] = tested on: U251 CNS
# [22] = tested on: BT-549 breast
# [23] = tested on: COLO 205 colon
# [24] = tested on: KM12 colon
# [25] = tested on: HCT-116 colon
# [26] = tested on: SW-620 colon
# [27] = tested on: OVCAR-5 ovarian
# [28] = tested on: T-47D breast
# [29] = tested on: PC-3 prostate
# [30] = tested on: LOX IMVI melanoma
# [31] = tested on: HOP-92 NSCLC
# [32] = tested on: NCI/ADR-RES ovarian
# [33] = tested on: MOLT-4 leukemia
# [34] = tested on: CCRF-CEM leukemia
# [35] = tested on: NCI-H522 lung
# [36] = tested on: SF-539 CNS
# [37] = tested on: 786-0 renal
# [38] = tested on: SR leukemia
# [39] = tested on: UACC-257 melanoma
# [40] = tested on: OVCAR-8 ovarian
# [41] = tested on: SF-268 CNS
# [42] = tested on: HOP-62 NSCLC
# [43] = tested on: TK-10 renal
# [44] = tested on: SF-295 CNS
# [45] = tested on: M14 melanoma
# [46] = tested on: HCT-15 colon
# [47] = tested on: EKVX NSCLC
# [48] = tested on: NCI-H226 lung
# [49] = tested on: MALME-3M melanoma
# [50] = tested on: RPMI-8226 leukemia
# [51] = tested on: OVCAR-3 ovarian
# [52] = tested on: A498 renal
# [53] = tested on: SNB-75 CNS
# [54] = tested on: SK-OV-3 ovarian
# [55] = tested on: SK-MEL-2 melanoma
# [56] = tested on: SN12C renal
structure (smiles),measurement,setting,value
CCN1CCN(c2cc(C)nc(N(CCCNc3ccnc4cc(Cl)ccc34)Cc3cccs3)n2)CC1,GI50,[1],3.88 µM
same,TGI,[1],13.9 µM
same,GI50,[2],2.14 µM
same,TGI,[2],4.15 µM
same,GI50,[3],1.31 µM
same,TGI,[3],4.33 µM
same,GI50,[4],1.45 µM
same,TGI,[4],3.17 µM
same,GI50,[5],2.47 µM
same,TGI,[5],7.84 µM
same,GI50,[6],2.22 µM
same,TGI,[6],10.3 µM
same,GI50,[7],3.38 µM
same,TGI,[7],9.22 µM
same,GI50,[8],1.98 µM
same,TGI,[8],4.58 µM
same,GI50,[9],3.22 µM
same,TGI,[9],14.4 µM
same,GI50,[10],1.59 µM
same,TGI,[10],2.95 µM
same,GI50,[11],1.72 µM
same,TGI,[11],3.11 µM
same,GI50,[12],1.33 µM
same,TGI,[12],2.88 µM
same,GI50,[13],2.02 µM
same,TGI,[13],5.02 µM
same,GI50,[14],2.11 µM
same,TGI,[14],12.7 µM
same,GI50,[15],1.93 µM
same,TGI,[15],3.56 µM
same,GI50,[16],2.11 µM
same,TGI,[16],6.58 µM
same,GI50,[17],1.82 µM
same,TGI,[17],3.39 µM
same,GI50,[18],3.21 µM
same,TGI,[18],14.3 µM
same,GI50,[19],1.4 µM
same,TGI,[19],3.56 µM
same,GI50,[20],0.525 µM
same,TGI,[20],2.29 µM
same,GI50,[21],2.22 µM
same,TGI,[21],7.05 µM
same,GI50,[22],1.93 µM
same,TGI,[22],5.04 µM
same,GI50,[23],1.57 µM
same,TGI,[23],3.32 µM
same,GI50,[24],2.62 µM
same,TGI,[24],12.7 µM
same,GI50,[25],1.32 µM
same,TGI,[25],10.4 µM
same,GI50,[26],1.59 µM
same,TGI,[26],3.86 µM
same,GI50,[27],3.97 µM
same,TGI,[27],15.3 µM
same,GI50,[28],2.29 µM
same,TGI,[28],6.89 µM
same,GI50,[29],3.11 µM
same,TGI,[29],15.9 µM
same,GI50,[30],1.84 µM
same,TGI,[30],3.59 µM
same,GI50,[31],1.55 µM
same,TGI,[31],3.79 µM
same,GI50,[32],2.96 µM
same,TGI,[32],16.8 µM
same,GI50,[33],1.62 µM
same,TGI,[33],6.12 µM
same,GI50,[34],2.7 µM
same,TGI,[34],12.5 µM
same,GI50,[35],1.81 µM
same,TGI,[35],3.81 µM
same,GI50,[36],1.76 µM
same,TGI,[36],3.33 µM
same,GI50,[37],1.56 µM
same,TGI,[37],3.58 µM
same,GI50,[38],1.29 µM
same,TGI,[38],3.23 µM
same,GI50,[39],2.1 µM
same,TGI,[39],3.94 µM
same,GI50,[40],3.06 µM
same,TGI,[40],10.9 µM
same,GI50,[41],2.03 µM
same,TGI,[41],6.62 µM
same,GI50,[42],2.79 µM
same,TGI,[42],15.2 µM
same,GI50,[43],1.82 µM
same,TGI,[43],4.09 µM
same,GI50,[44],1.84 µM
same,TGI,[44],3.73 µM
same,GI50,[45],1.8 µM
same,TGI,[45],3.51 µM
same,GI50,[46],1.33 µM
same,TGI,[46],4.51 µM
same,GI50,[47],3.88 µM
same,TGI,[47],16.6 µM
same,GI50,[48],8.12 µM
same,TGI,[48],31.5 µM
same,GI50,[49],2.01 µM
same,TGI,[49],3.7 µM
same,GI50,[50],1.57 µM
same,TGI,[50],4.82 µM
same,GI50,[51],1.83 µM
same,TGI,[51],6.03 µM
same,GI50,[52],2.41 µM
same,TGI,[52],7.13 µM
same,GI50,[53],1.5 µM
same,TGI,[53],3.2 µM
same,GI50,[54],3.29 µM
same,TGI,[54],10.5 µM
same,GI50,[55],1.98 µM
same,TGI,[55],3.92 µM
same,GI50,[56],3.35 µM
same,TGI,[56],14 µM
